Measurements published in PMC5522078, “Discovery and characterization of small molecules targeting the DNA-binding ETS domain of ERG in prostate cancer” (Oncotarget, 2017).

Key:
SOX9 = SOX9 gene expression in VCaP cells; assay type: cell-based, human; conditions: 25 μM, with and without 1 nM R1881
Description: Total RNA was extracted from VCaP cells with the use of RNeasy Plus kit (Qiagen). Reverse transcription was performed with the use of the iScript First-Strand cDNA Synthesis Kit (Bio-Rad Laboratories) with 100 ng total RNA used as template. Real time reverse-transcription (RT) polymerase chain reaction (PCR) primers for ERG synthesized by IDT (forward, 5′- CGCAGATTATCGT GCCAGCAGAT -3′; reverse, 5′- CCATATTCTTTCACC GCCCACTCC-3′) and SOX9 (Quantitect primer assay, Qiagen). Real-time quantitative RT-PCR was performed in triplicate for each sample with the use of the ABI ViiA7 QPCR thermocycler. In each reaction, 1 μl cDNA, 1 μl forward and reverse primers (or 1 μl of Quantitect primers), and 6 μl Sybr Green Master Mix (Applied Biosystems) were added with water to make a final volume of 12 μl. All primers were used at a concentration of 5 μmol/l. PCR cycling conditions were 95°C for 10 minutes followed by 40 cycles of 95°C for 15 seconds, 60°C for 1 min. Data was normalized to reference genes: GAPDH (forward, 5′- […] -3′; reverse, 5′- […] -3′) The 2^−ΔΔCT method was used to compare samples. PCR product specificity was validated with the use of a melt curve.

ERG = biological target: T1, ERG (Homo sapiens, UniProt P11308); test: ERG protein stability, Western blot after cycloheximide; assay type: cell-based; conditions: VCaP cells
T1 construct: VCaP (endogenous overexpression); endogenous in cells; host or cells: VCaP (whole cells for A2 and A17; nuclear extract for A16)
T1 sequence (P11308 33-479 limits assumed): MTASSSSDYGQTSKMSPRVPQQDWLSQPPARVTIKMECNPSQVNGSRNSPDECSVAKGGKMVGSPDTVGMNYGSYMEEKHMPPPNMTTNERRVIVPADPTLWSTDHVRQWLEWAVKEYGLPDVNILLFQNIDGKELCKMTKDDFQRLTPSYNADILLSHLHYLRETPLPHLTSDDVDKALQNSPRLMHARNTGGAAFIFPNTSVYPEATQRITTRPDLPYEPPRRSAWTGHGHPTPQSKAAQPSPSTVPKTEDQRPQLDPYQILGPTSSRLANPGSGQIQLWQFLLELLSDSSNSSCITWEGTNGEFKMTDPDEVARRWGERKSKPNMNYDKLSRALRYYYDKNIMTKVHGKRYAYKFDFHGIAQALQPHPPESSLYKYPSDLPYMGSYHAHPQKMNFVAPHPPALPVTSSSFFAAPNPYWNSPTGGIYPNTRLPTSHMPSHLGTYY
Description: Cells were lysed on ice with RIPA buffer containing a protease inhibitor cocktail (Pierce). Primary antibodies: ERG (1:1,000, EPR3864(2), Abcam), α-Tubulin (1:20,000, Millipore), Vinculin (1:1,000, Abcam). Immunoreactivity was detected with the use of the goat anti-rabbit or rabbit anti-mouse horseradish peroxidase (HPR)–conjugated secondary antibody (1:10,000) (Santa Cruz), and visualization was achieved by chemiluminescence (Pierce). To inhibit protein synthesis, 10 μM cycloheximide was added for 1 h and then replaced with treatment medium for indicated time frame.

ERG-ETS domain = biological target: T2, ERG-ETS domain (Homo sapiens, UniProt P11308); test: NMR-monitored titration (15N-HSQC) with ERG-ETS domain; conditions: 15N-HSQC titration, 1:1 binding isotherm; pH 6.5; read-out: KD for interaction with recombinant ERG-ETS domain
T2 construct: A pET28a plasmid encoding residues 307–400 of the ERG-ETS domain; His6 (cleaved yes); made in house; host or cells: E. coli BL21 (λDE3)
T2 sequence (P11308 307-400): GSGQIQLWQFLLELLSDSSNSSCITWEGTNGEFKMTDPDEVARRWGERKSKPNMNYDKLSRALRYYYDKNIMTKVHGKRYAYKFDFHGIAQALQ
Description: ERG-ETS domain expression and purification. A pET28a plasmid encoding residues 307–400 of the ERG-ETS domain was expressed in E. coli BL21 (λDE3). Cultures of 1 L were grown at 37°C in M9 media supplied with 3 gm/L ^13C6-glucose and/or 1 gm/L ^15NH4Cl. Cells were allowed to grow to O.D.600 = 0.6 and protein expression was induced by adding 1 mM IPTG. After an induction time of 4 h, cells were harvested by centrifugation and stored at −80 °C for at least 1 round of freeze/thaw. Cells were resuspended in 40 mL of lysis buffer for every 1 L of culture. Cells were lysed by passing through 5 rounds of homogenization and 10 mins of sonication. The cell lysate centrifuged at 15k rpm for 1 hr, and the supernatant subjected to nickel column purification. The column was washed using 25 mM imidazole (50 mM phosphate, 1 M NaCl, pH 7.4) and proteins were eluted with 1 M imidazole. Fractions containing the ETS domain were confirmed by SDS-PAGE and pooled. […] NMR data were recorded at 25 or 28°C on cryoprobe-equipped 850 MHz Bruker Avance III spectrometer. Data were processed and analyzed using NMRpipe and Sparky. […] NMR-monitored titrations. Interactions of compounds with the ERG-ETS domain were monitored via sensitivity-enhanced ^15N-HSQC spectra. […] Chemical shift perturbations were calculated from the combined amide ^1H^N and ^15N shift changes as Δδ = [(0.2 × ΔδN)^2 + (ΔδH)^2]^1/2. […]

VCaP cells = system: VCaP cells; parameters: method as in PMID 21559405; conditions: read-out: IC50 for cytotoxicity in VCaP cells; cited from earlier work

Row | Compound | Basal and R1881-stimulated SOX9 mRNA and protein expression (SOX9) | ERG protein degradation, 4 h (ERG; cycloheximide pre-treatment, up to 50 μM for 4 h) | ERG protein degradation, 24 and 48 h (ERG; cycloheximide, 24 and 48 h) | Kd (ERG-ETS domain) | IC50 (VCaP cells)
1 | CC(C)c1ccc(C=N/N=C2\NC(=O)[C@@H](CC(=O)O)S2)cc1 (stereo in doubt) [VPC-18005, 2-((Z)-2-(((Z)-4-isopropylbenzylidene)hydrazono)-4-oxothiazolidin-5-yl)acetic acid] | markedly decreased | did not induce ERG degradation | no observable ERG protein degradation | ~3 mM | –
2 | COc1ccc(C(=O)CC2(O)C(=O)Nc3c(Cl)ccc(Cl)c32)cc1 (centres unmarked) [YK-4-279, reference compound] | – | – | – | – | 10 µM
